According to patent US5162333A, “Aminodiesters of rapamycin” (American Home Products Corporation, priority 1991, dated 1992):

Key:
[1] = test system: Candida albicans; conditions: particularly against Candida albicans, both in vitro and in vivo; cited from earlier work
[2] = test system: experimental allergic encephalomyelitis model, a model for multiple sclerosis; conditions: in vivo; cited from earlier work
[3] = test system: mixed lymphocyte reaction in popliteal lymph node; test: popliteal lymph node (PLN) test procedure, in vivo mixed lymphocyte reaction; set-up: species or system mouse (BALB/c donors, C3H mice recipients); conditions: for PLN (ratio): p.o. daily Day 0 to Day 4, calculation described in b30 (formula not shown)
Protocol: (§1) Immunosuppressive activity was evaluated in an in vitro standard pharmacological test procedure to measure lymphocyte proliferation (LAF) and in two in vivo standard pharmacological test procedures. The first in vivo procedure was a popliteal lymph node (PLN) test procedure which measured the effect of compounds of this invention on a mixed lymphocyte reaction and the second in vivo procedure evaluated the survival time of a pinch skin graft.
A mixed lymphocyte reaction (MLR) occurs when lymphoid cells from genetically distinct animals are combined in tissue culture. Each stimulates the other to undergo blast transformation which results in increased DNA synthesis that can be quantified by the incorporation of tritiated thymidine. Since stimulating a MLR is a function of disparity at Major Histocompatibility antigens, an in vivo popliteal lymph node (PLN) test procedure closely correlates to host vs. graft disease. Briefly, irradiated spleen cells from BALB/c donors are injected into the right hind foot pad of recipient C3H mice. The drug is given daily, p.o. from Day 0 to Day 4. On Day 3 and Day 4, tritiated thymidine is given i.p., b.i.d. On Day 5, the hind popliteal lymph nodes are removed and dissolved, and radioactivity counted. The corresponding left PLN serves as the control for the PLN from the injected hind foot. Percent suppression is calculated using the non-drug treated animals as allogenic control. […] Results are expressed by the following ratio: [formula]

[4] = test system: formation of IgE-like antibodies; conditions: cited from earlier work
[5] = test system: pinch skin graft from male DBA/2 donors transplanted to male BALB/c recipients; test: survival time of pinch skin graft; format: in vivo, mouse (DBA/2 donors; conditions: intraperitoneally; days to rejection
Protocol: as §1
The second in vivo test procedure is designed to determine the survival time of pinch skin graft from male DBA/2 donors transplanted to male BALB/c recipients. The method is adapted from Billingham R. E. and Medawar P. B., J. Exp. Biol. 28:385-402, (1951). Briefly, a pinch skin graft from the donor is grafted on the dorsum of the recipient as a homograft, and an autograft is used as control in the same region. […] Untreated recipients serve as rejection control. The graft is monitored daily and observations are recorded until the graft becomes dry and forms a blackened scab. This is considered as the rejection day. The mean graft survival time (number of days±S.D.) of the drug treatment group is compared with the control group.

[6] = test system: thymocyte proliferation (cells from the thymus of normal BALB/c mice, PHA and IL-1); test: comitogen-induced thymocyte proliferation procedure (LAF); format: cell-based; conditions: for LAF (ratio): calculation described in b29 (formula not shown)
Protocol: as §1
Briefly, cells from the thymus of normal BALB/c mice are cultured for 72 hours with PHA and IL-1 and pulsed with tritiated thymidine during the last six hours. […] Cells are harvested and incorporated; radioactivity is determined. Inhibition of lymphoproliferation is assessed in percent change in counts per minute from non-drug treated controls. The results are expressed by the following ratio, or as the IC50, expressed in nM. [formula]

[7] = test system: organ grafts in histoincompatible rodents; conditions: cited from earlier work

Structure (SMILES)	antifungal activity [1]	effect in experimental allergic encephalomyelitis model [2]	Percent suppression in PLN ([3]; 6 mg/kg, p.o., vs non-drug treated allogenic control)	inhibition of the formation of IgE-like antibodies [4]	Skin Graft (mean graft survival time) [5]	IC50 ([6]; Mus musculus, Thymocyte, read-out: LAF IC50)	survival time of organ grafts [7]	PLN (ratio) [3]	LAF (ratio) [6]
CO[C@H]1C[C@@H]2CC[C@@H](C)[C@@](O)(O2)C(=O)C(=O)N2CCCC[C@H]2C(=O)O[C@H]([C@H](C)C[C@@H]2CC[C@@H](O)[C@H](OC)C2)CC(=O)[C@H](C)/C=C(\C)[C@@H](O)[C@@H](OC)C(=O)[C@H](C)C[C@H](C)/C=C/C=C/C=C/1C [Rapamycin, rapamycin]	antifungal activity, particularly against Candida albicans, both in vitro and in vivo	effective	86%	effectively inhibited the formation of IgE-like antibodies	12.0 ± 1.7 days ± SD	8.7 nM	prolong survival time of organ grafts	–	–
CO[C@H]1C[C@@H]2CC[C@@H](C)[C@@](O)(O2)C(=O)C(=O)N2CCCC[C@H]2C(=O)O[C@H]([C@H](C)C[C@@H]2CC[C@@H](OC(=O)CC[C@H](NC(=O)OCc3ccccc3)C(=O)O[C@@H]3CC[C@@H](C[C@@H](C)[C@@H]4CC(=O)[C@H](C)/C=C(\C)[C@@H](O)[C@@H](OC)C(=O)[C@H](C)C[C@H](C)/C=C/C=C/C=C(\C)[C@@H](OC)C[C@@H]5CC[C@@H](C)[C@@](O)(O5)C(=O)C(=O)N5CCCC[C@H]5C(=O)O4)C[C@H]3OC)[C@H](OC)C2)CC(=O)[C@H](C)/C=C(\C)[C@@H](O)[C@@H](OC)C(=O)[C@H](C)C[C@H](C)/C=C/C=C/C=C/1C [Example 1, Rapamycin-42,42'-diester with N-[(phenylmethoxy)carbonyl]-L-glutamic acid]	–	–	–	–	10.2 ± 0.4 days ± SD	–	–	0.45	0.53
CO[C@H]1C[C@@H]2CC[C@@H](C)[C@@](O)(O2)C(=O)C(=O)N2CCCC[C@H]2C(=O)O[C@H]([C@H](C)C[C@@H]2CC[C@@H](OC(=O)C[C@H](NC(=O)OCc3ccccc3)C(=O)O[C@@H]3CC[C@@H](C[C@@H](C)[C@@H]4CC(=O)[C@H](C)/C=C(\C)[C@@H](O)[C@@H](OC)C(=O)[C@H](C)C[C@H](C)/C=C/C=C/C=C(\C)[C@@H](OC)C[C@@H]5CC[C@@H](C)[C@@](O)(O5)C(=O)C(=O)N5CCCC[C@H]5C(=O)O4)C[C@H]3OC)[C@H](OC)C2)CC(=O)[C@H](C)/C=C(\C)[C@@H](O)[C@@H](OC)C(=O)[C@H](C)C[C@H](C)/C=C/C=C/C=C/1C [Example 2, Rapamycin 42-42'-diester with N-[(phenylmethoxycarbonyl)]-L-aspartic acid]	–	–	–	–	10.7 ± 0.2 days ± SD	–	–	0.45	0.32
